Article PMC4389562, “Antigiardial activity of novel triazolyl-quinolone-based chalcone derivatives: when oxygen makes the difference” (Frontiers in Microbiology, 2015)
Read-outs that look alike come from different tables or passages of the source.

Experiments:
Caco-2 cells = assay: Counter-screen on Caco-2 cells, ATP level by luminescence (ATPlite), 48 h incubation; format: cell-based, human; conditions: atmospheric O2, 5% CO2, 48 h, 37 °C
Protocol: Trophozoites of G. intestinalis strain WB clone C6 (ATCC No. 50803TM) were cultured axenically at 37^∘C in 25-cm^2 flasks containing Diamond’s TYI-S-33 medium supplemented with 10% bovine calf serum, 1 mg/mL bovine bile, 0.1 g/L streptomycin and 100 U/mL penicillin. […] Human epithelial colorectal adenocarcinoma (Caco-2) cells were grown in 25-cm^2 flasks in EMEM supplemented with 1% (v/v) non-essential amino acids, 2 mM glutamine, 5% (v/v) fetal bovine serum, 0.1 g/L streptomycin, and 100 U/mL penicillin.
Cells were detached with 0.5% trypsin-EDTA and seeded in sterile 96-well white clear-bottom plates at the same density of Giardia trophozoites and at increasing concentration of the compound to be tested, as described above. The assays were carried out exactly as reported for the Giardia trophozoites, except that the plates were incubated (still at 37^∘C) at atmospheric O2 level, 5% CO2, and 95% humidity. Each drug concentration was tested in at least seven replicates. MTZ was used as an internal […] control in the assay. Following 48 h incubation with each compound, according to the manufacturer instructions, 100 μL of the ATPlite^TM luminescence assay system (Perkin Elmer) was added to each well for one-step lysis and ATP level detection by luminescence.
Luminometric data were calibrated using ATP standard curves and normalized to the ATP level measured in control DMSO-treated cells (taken as 100%). The measured ATP level percentage was plotted as a function of the compound concentration and the half-maximal inhibitory concentration (IC50) was obtained by fitting the resulting titration profile to the Hill equation ([Goutelle et al., 2008]). The selectivity index (SI) of the compounds was then calculated as the ratio between the IC50 value measured on human cells over the value determined on Giardia trophozoites (SI = IC50,Caco-2/IC50,Giardia).
Selectivity of the newly synthesized compounds toward Giardia was assessed by running a counter-screen on human epithelial Caco-2 cells. […] This allowed us to calculate the compounds SI, defined as the ratio between the IC50 value measured on human cells over the value determined on Giardia trophozoites.

[1] = system: Giardia intestinalis trophozoites; assay: Drug susceptibility of Giardia trophozoites, ATP level by luminescence (BacTiter-Glo), 48 h incubation, anaerobic or microaerobic; format: cell-based, Giardia intestinalis strain WB clone C6; conditions: for IC50: 48 h, 37 °C, ATP level; for selectivity ratio at 48 h: human (Caco-2 cells) versus Giardia intestinalis, Caco-2, SI = IC50,Caco-2/IC50,Giardia; for Selectivity (IC50,Caco/IC50,Giardia) Anaerobiosis / Selectivity (IC50,Caco/IC50,Giardia) Microaerobiosis: SI = IC50,Caco-2/IC50,Giardia
Protocol: Trophozoites of G. intestinalis strain WB clone C6 (ATCC No. 50803TM) were cultured axenically at 37^∘C in 25-cm^2 flasks containing Diamond's TYI-S-33 medium supplemented with 10% bovine calf serum, 1 mg/mL bovine bile, 0.1 g/L streptomycin and 100 U/mL penicillin. Typically, 50 ml medium was inoculated with 25 × 10^6 cells and after 2 days cells were harvested by chilling the flasks on ice for 30 min for drug susceptibility assays. […] The assays were performed following the procedure described in [Bahadur et al. (2014)], using sterile 96-well white clear-bottom plates. […] Each drug concentration was tested in at least six replicates. MTZ was used as an internal positive control in the assay. The microtiter plates were then incubated at 37^∘C under anaerobic or microaerobic conditions, ensured by the Anaerocult® A or the Anaerocult® […] (Merck), respectively. […] Following 48 h incubation with the compound to be tested, 100 μL of the BacTiter-Glo^TM Microbial Cell Viability Assay System reagent (Promega) was added to each well for one-step lysis and ATP level detection. Plates were then incubated at room temperature for 15 min and ATP levels finally detected by luminescence on a plate reader (Wallac Victor3 1420 Multilabel Counter, PerkinElmer). Luminometric data were calibrated using ATP standard curves and normalized to the ATP level measured in control DMSO-treated cells (taken as 100%). The measured ATP level percentage was plotted as a function of the compound concentration and the half-maximal inhibitory concentration (IC50) was obtained by fitting the resulting titration profile to the Hill equation ([Goutelle et al., 2008]). The selectivity index (SI) of the compounds was then calculated as the ratio between the IC50 value measured on human cells over the value determined on Giardia trophozoites (SI = IC50,Caco-2/IC50,Giardia). The antigiardial activity of the novel compounds 23-67 was tested under both anaerobic and microaerobic conditions. According to ([Dunn et al., 2010]; [Bahadur et al., 2014]), susceptibility of Giardia trophozoites to increasing concentrations of each compound was assessed based on ATP level determination by luminescence. Dose-response curves for each compound were obtained after 48 h-incubation and compared to the data collected under identical conditions with MTZ, the drug of choice for treatment of giardiasis. […] Typical dose-response curves are shown in Figure 2, whereas the IC50 values measured for the synthetic compounds and MTZ under anaerobic and microaerobic conditions are reported in Table 1. […] Under anaerobic conditions, 18 out of the 45 synthetic compounds were as effective as MTZ or more under identical conditions (see Table 1).

[2] = Giardia duodenalis, anaerobic conditions (Anaerocult A), read-out: Giardia (anaerobiosis) IC50
[3] = Giardia duodenalis, microaerobic conditions (~5% O2, Anaerocult C), read-out: Giardia (microaerobiosis) IC50
[4] = Giardia under anaerobiosis, read-out: Selectivity (IC50,Caco/IC50,Giardia) Anaerobiosis
[5] = Giardia under microaerobiosis, read-out: Selectivity (IC50,Caco/IC50,Giardia) Microaerobiosis
[6] = anaerobic conditions (Anaerocult A), read-out: Giardia (anaerobiosis) IC50
[7] = microaerobic conditions (~5% O2, Anaerocult C), read-out: Giardia (microaerobiosis) IC50

| SMILES | melting point [°C] | IC50 (Caco-2 cells; Homo sapiens, Caco-2, 48 h) [µM] | IC50 [1, 2] [µM] | IC50 [1, 3] [µM] | selectivity ratio at 48 h [1, 4] | selectivity ratio at 48 h [1, 5] | IC50 (Caco-2 cells) [µM] | Selectivity (IC50,Caco/IC50,Giardia) Anaerobiosis ([1]; Giardia under anaerobiosis) | Selectivity (IC50,Caco/IC50,Giardia) Microaerobiosis ([1]; Giardia under microaerobiosis) | IC50 [1, 6] [µM] | IC50 [1, 7] [µM] | fold more efficient than MTZ against Giardia ([1]; anaerobic conditions, relative to MTZ) |
| --- | --- | --- | --- | --- | --- | --- | --- | --- | --- | --- | --- | --- |
| O=C(/C=C/c1cc2ccccc2n(Cc2cn(-c3ccccc3)nn2)c1=O)c1cccc(F)c1 [Compound 60] | 180 to 182 | ≥ 50 | 3.5 | 0.7 | ≥ 14 | ≥ 71 | – | – | – | – | – | – |
| COc1ccc(C(=O)/C=C/c2cc3ccccc3n(Cc3cn(-c4ccc(C)cc4)nn3)c2=O)cc1 [Compound 40] | 182 to 184 | ≥ 60 | ≥ 15 | 2.4 | – | ≥ 25 | – | – | – | – | – | – |
| O=C(/C=C/c1cc2ccccc2n(Cc2cn(-c3ccc(F)cc3)nn2)c1=O)c1ccc(Cl)cc1 [Compound 44] | 190 to 192 | 7.2 | 1.5 | 1 | 4.8 | 7.2 | – | – | – | – | – | – |
| Cc1ncc([N+](=O)[O-])n1CCO [MTZ, metronidazole, reference compound] | – | > 100 | 3.4 | ≥ 25 | ≥ 29 | – | – | – | – | – | – | – |
| Cc1ccc(-n2cc(Cn3c(=O)c(/C=C/C(=O)c4cccc(F)c4)cc4ccccc43)nn2)cc1 [Compound 33] | – | – | – | – | – | – | 13.4 | 3,4 | 19,1 | 4 | 0.7 | – |
| COc1ccc(C(=O)/C=C/c2cc3ccccc3n(Cc3cn(-c4ccc(F)cc4)nn3)c2=O)cc1 [Compound 49] | – | – | – | – | – | – | ≥ 50 | ≥3 | ≥38 | 13 | 1.3 | – |
| O=C(/C=C/c1cc2ccccc2n(Cc2cn(-c3ccc(Cl)cc3)nn2)c1=O)c1cccc(F)c1 [Compound 51] | 190 to 192 | ≥ 100 | 10 | 0.9 | ≥ 10 | ≥ 111 | – | – | – | – | – | – |
| COc1ccccc1C(=O)/C=C/c1cc2ccccc2n(Cc2cn(-c3ccc(C)cc3)nn2)c1=O [Compound 38] | – | – | – | – | – | – | 13.7 | 6,9 | 34,3 | 2 | 0.4 | – |
| COc1ccccc1C(=O)/C=C/c1cc2ccccc2n(Cc2cn(-c3ccc(Cl)cc3)nn2)c1=O [Compound 56] | 230 to 232 | 8.4 | 3.2 | 0.6 | 2.6 | 14 | – | – | – | – | – | – |
| COc1ccc(C(=O)/C=C/c2cc3ccccc3n(Cc3cn(-c4ccc(Cl)cc4)nn3)c2=O)cc1 [Compound 58] | 210 to 212 | 19.7 | ≥ 100 | ≥ 30 | ≤ 0.2 | ≤ 0.7 | – | – | – | – | – | – |
| O=C(/C=C/c1cc2ccccc2n(Cc2cn(-c3ccccc3)nn2)c1=O)c1ccc(Br)cc1 [Compound 63] | – | – | – | – | – | – | ≥ 50 | ≥ 7 | ≥ 50 | 6.3 | 1 | – |
| Cc1ccc(C(=O)/C=C/c2cc3ccccc3n(Cc3cn(-c4ccc(F)cc4)nn3)c2=O)cc1 [Compound 46] | – | – | – | – | – | – | 6.3 | 2,5 | 15,8 | 2.5 | 0.4 | – |
| O=C(/C=C/c1cc2ccccc2n(Cc2cn(-c3ccc(F)cc3)nn2)c1=O)c1ccccc1F [Compound 41] | – | – | – | – | – | – | 5.2 | 5,8 | 26 | 0.9 | 0.2 | three to fourfold |
| COc1ccc(-n2cc(Cn3c(=O)c(/C=C/C(=O)c4cccc(OC)c4)cc4ccccc43)nn2)cc1 [Compound 30] | – | – | – | – | – | – | ≥ 200 | ≥33 | ≥153 | 5.9 | 1.3 | – |
| COc1ccc(-n2cc(Cn3c(=O)c(/C=C/C(=O)c4ccc(Br)cc4)cc4ccccc43)nn2)cc1 [Compound 27] | – | – | – | – | – | – | ≥ 20 | ≥2 | ≥10 | 9.6 | 2 | – |
| COc1ccc(-n2cc(Cn3c(=O)c(/C=C/C(=O)c4cccc(F)c4)cc4ccccc43)nn2)cc1 [Compound 24] | – | – | – | – | – | – | ≥ 50 | – | ≥6 | ≥ 100 | 8.4 | – |
| O=C(/C=C/c1cc2ccccc2n(Cc2cn(-c3ccc(Cl)cc3)nn2)c1=O)c1ccc(Br)cc1 [Compound 54] | – | – | – | – | – | – | ≥ 20 | ≥ 2 | ≥10 | 9.2 | 1.9 | – |
| COc1cccc(C(=O)/C=C/c2cc3ccccc3n(Cc3cn(-c4ccc(C)cc4)nn3)c2=O)c1 [Compound 39] | 192 to 194 | – | 2.9 | 1.3 | – | – | – | – | – | – | – | – |
